Assays:
[1] = biological target: EGFR (UniProt P00533); settings: concentration not given here
[2] = biological target: EGFR (human) (UniProt P00533); settings: for inhibition: mda-mb-468, concentration not given here; for IC50: mda-mb-468
Sequence of EGFR (human) (P00533 whole entry, looked up): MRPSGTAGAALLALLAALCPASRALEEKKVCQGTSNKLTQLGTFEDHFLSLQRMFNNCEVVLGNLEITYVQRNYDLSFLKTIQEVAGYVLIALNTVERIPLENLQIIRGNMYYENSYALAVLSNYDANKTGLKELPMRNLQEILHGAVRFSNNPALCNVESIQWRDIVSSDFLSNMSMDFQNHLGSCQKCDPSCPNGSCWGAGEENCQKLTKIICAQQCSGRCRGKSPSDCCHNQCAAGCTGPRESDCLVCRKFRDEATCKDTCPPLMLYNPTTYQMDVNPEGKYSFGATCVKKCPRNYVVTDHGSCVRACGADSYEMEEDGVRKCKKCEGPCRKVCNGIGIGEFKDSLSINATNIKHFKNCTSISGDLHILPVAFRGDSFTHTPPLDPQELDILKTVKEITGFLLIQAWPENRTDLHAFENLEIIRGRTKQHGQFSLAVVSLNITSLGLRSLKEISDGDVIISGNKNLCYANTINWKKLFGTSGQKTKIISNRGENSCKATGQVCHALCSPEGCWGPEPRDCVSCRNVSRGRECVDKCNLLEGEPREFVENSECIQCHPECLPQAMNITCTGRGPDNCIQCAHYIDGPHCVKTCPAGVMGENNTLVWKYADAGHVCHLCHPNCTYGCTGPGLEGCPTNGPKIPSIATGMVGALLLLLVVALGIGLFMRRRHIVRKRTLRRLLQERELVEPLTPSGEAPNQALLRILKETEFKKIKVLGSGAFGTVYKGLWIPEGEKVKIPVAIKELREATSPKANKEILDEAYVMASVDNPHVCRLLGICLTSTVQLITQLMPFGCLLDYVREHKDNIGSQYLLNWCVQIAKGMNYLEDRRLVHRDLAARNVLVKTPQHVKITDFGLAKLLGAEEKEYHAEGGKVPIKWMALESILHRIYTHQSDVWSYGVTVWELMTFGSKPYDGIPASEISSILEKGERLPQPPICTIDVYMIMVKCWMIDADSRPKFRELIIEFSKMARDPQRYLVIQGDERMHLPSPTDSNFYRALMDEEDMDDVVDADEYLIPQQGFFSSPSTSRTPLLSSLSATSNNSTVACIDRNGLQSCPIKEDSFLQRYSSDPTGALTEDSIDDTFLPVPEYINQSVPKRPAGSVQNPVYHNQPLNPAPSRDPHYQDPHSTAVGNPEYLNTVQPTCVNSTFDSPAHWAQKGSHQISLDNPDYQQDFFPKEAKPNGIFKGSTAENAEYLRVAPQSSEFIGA

Sequence of EGFR (P00533 whole entry, looked up): as above

| Structure (SMILES) | inhibition [1] [%] | inhibition [2] [%] | IC50 [2] [µM] |
| --- | --- | --- | --- |
| COc1ccc([N+](=O)[O-])c2ncnc(O)c12 | 0 | 35.8 |  |
| Nc1ccc(Nc2ccc([N+](=O)[O-])c3ncnc(O)c23)cc1 | 0 |  | 4 |
| O=[N+]([O-])c1ccc(N2CCCC2)c2c(O)ncnc12 | 0 | 23.3 |  |
| O=[N+]([O-])c1ccc(Nc2ccccc2)c2c(O)ncnc12 | 17.7 |  | 0.48 |
| O=[N+]([O-])c1ccc(Nc2ccc(OCc3ccccc3)cc2)c2c(O)ncnc12 | 21.1 |  | 4.2 |
| COc1ccc(Nc2ccc([N+](=O)[O-])c3ncnc(O)c23)cc1 | 12.2 | 75.5 | < 0.01 |
| Cc1cccc(Nc2ccc([N+](=O)[O-])c3ncnc(O)c23)c1 | 0 | 15.2 |  |
| COC(=O)C#Cc1ccc([N+](=O)[O-])cc1 | 28 |  |  |
| CCOc1ccc([N+](=O)[O-])c2ncnc(O)c12 | 3.9 | 32.3 |  |
| O=[N+]([O-])c1ccc(Nc2cccc(Cl)c2)c2c(O)ncnc12 | 17.1 | 32.5 | > 10 |
| CSCC[C@@H](Nc1ccc([N+](=O)[O-])c2ncnc(O)c12)C(=O)O | 5.6 | 19.9 |  |
| O=[N+]([O-])c1ccc(NCc2ccccc2)c2c(O)ncnc12 | 5.2 | 12.1 |  |
| O=[N+]([O-])c1ccc(Nc2ccc(Cl)cc2)c2c(O)ncnc12 | 18.3 | 28.6 |  |
| O=[N+]([O-])c1ccc(N2CC=CC2)c2c(O)ncnc12 | 7.9 | 34.6 |  |
| O=C(O)[C@H](Nc1ccc([N+](=O)[O-])c2ncnc(O)c12)c1ccccc1 | 6.5 | 29.2 |  |

— the Kinase Knowledgebase extract (Sharma et al. 2016)
